Experimental data: patent US20250179000A1 (Sanford Burnham Prebys Medical Discovery Institute, priority 2021, published 2025)

Assays:
Format in all cases: cell-based
Human mGlu3 = Human mGlu3 (Homo sapiens, UniProt Q14832); assay: mGlu receptor in vitro assay, human mGlu3
Rat mGlu2 = target: T1, Rat mGlu2 (Rattus norvegicus, UniProt P31421); assay: mGlu receptor in vitro assay, thallium flux through GIRK channels, rat mGlu2; conditions: PAM potency with EC20 glutamate
T1 construct: expressed in transfected cells; host or cells: HEK-293 co-expressing GIRK channels
In short: (§1)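 HEK-293 cells co-expressing rat mGlu2 or mGlu3 and GIRK, dye-loaded with FluoZin2-AM, compound added about 2.5 min before thallium buffer with EC20 glutamate; potency from the 5-15 s fluorescence slope, 10-point 4-parameter fit. Calcium assay at mGlu3 used TREx293 mGlu3 Gα15 cells induced with tetracycline 20 ng/mL for 20 h.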

Human mGlu2 = Human mGlu2 (Homo sapiens, UniProt Q14416); assay: mGlu receptor in vitro assay, human mGlu2
Rat mGlu3 = target: T2, Rat mGlu3 (Rattus norvegicus, UniProt P31422); assay: mGlu receptor in vitro assay (thallium flux through GIRK channels / calcium assay), rat mGlu3; conditions: PAM potency with EC20 glutamate
T2 construct: expressed in transfected cells; host or cells: HEK-293 co-expressing GIRK channels
In short: as §1

Chain of Human mGlu3 (Q14832 23-879): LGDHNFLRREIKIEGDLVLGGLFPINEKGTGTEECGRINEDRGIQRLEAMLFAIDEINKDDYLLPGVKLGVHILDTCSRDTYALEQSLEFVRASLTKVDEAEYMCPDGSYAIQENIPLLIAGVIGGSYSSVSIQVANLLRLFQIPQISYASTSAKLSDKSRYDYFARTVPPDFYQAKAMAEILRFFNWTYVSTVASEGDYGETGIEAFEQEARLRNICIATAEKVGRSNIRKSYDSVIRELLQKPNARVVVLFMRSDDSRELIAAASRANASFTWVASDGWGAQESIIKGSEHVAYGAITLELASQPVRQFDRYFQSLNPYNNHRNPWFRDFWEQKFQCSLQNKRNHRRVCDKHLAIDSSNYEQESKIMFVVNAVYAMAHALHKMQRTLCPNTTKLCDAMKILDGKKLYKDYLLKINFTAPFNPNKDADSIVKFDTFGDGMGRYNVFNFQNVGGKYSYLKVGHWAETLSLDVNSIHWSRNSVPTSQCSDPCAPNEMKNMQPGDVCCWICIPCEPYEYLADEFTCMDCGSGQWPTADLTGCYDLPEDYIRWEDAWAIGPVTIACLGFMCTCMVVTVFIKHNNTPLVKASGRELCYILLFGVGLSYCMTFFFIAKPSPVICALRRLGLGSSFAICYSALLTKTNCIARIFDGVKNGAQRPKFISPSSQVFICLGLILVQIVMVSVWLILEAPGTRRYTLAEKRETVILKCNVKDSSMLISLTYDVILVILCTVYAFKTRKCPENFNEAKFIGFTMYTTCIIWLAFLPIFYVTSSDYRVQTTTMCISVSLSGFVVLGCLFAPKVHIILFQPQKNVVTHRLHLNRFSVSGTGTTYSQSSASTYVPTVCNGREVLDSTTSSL
Chain of Human mGlu2 (Q14416 19-872): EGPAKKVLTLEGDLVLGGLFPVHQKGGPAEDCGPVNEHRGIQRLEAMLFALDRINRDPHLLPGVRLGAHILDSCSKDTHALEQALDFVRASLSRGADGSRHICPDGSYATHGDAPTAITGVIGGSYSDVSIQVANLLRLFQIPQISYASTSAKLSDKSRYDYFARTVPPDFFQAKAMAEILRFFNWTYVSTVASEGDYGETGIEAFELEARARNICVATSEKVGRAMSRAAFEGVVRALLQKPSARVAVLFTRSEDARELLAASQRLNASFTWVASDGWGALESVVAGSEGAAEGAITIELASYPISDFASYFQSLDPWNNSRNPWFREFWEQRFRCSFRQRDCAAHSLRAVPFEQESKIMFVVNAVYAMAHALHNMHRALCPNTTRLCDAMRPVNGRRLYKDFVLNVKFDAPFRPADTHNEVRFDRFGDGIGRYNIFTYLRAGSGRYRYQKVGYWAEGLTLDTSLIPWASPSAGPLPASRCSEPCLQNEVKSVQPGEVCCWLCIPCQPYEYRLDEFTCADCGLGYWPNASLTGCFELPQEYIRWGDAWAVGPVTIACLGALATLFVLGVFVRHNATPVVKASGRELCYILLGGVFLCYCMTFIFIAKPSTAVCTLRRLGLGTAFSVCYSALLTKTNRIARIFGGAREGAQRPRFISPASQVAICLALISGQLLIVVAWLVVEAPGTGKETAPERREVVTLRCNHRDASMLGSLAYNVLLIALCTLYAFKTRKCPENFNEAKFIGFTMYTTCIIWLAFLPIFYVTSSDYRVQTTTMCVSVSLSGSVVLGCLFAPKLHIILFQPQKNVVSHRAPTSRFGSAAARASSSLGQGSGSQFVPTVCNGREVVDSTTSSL
T1 sequence (P31421 19-872): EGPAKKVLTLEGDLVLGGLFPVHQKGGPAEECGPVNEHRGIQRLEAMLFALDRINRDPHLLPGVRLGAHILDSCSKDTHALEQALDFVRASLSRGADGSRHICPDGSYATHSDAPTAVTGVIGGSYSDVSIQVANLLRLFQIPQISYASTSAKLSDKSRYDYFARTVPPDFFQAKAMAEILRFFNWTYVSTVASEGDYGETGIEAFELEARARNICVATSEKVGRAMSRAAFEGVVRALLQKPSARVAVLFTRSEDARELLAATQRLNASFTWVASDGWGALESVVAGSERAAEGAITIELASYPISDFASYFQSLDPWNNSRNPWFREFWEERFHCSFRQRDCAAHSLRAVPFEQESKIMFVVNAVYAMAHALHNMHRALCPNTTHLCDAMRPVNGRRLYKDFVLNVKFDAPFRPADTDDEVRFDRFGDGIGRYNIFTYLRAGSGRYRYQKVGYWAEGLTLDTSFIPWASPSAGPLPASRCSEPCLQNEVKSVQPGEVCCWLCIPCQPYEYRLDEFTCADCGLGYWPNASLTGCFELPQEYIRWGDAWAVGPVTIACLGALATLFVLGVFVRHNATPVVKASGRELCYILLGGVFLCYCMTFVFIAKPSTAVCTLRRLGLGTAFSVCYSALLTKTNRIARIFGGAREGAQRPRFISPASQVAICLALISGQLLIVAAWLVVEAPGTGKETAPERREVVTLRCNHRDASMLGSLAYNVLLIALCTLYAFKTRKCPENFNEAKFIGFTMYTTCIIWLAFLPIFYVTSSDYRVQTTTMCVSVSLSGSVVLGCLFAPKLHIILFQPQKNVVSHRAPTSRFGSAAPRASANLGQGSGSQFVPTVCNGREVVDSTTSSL
T2 sequence (P31422 23-879): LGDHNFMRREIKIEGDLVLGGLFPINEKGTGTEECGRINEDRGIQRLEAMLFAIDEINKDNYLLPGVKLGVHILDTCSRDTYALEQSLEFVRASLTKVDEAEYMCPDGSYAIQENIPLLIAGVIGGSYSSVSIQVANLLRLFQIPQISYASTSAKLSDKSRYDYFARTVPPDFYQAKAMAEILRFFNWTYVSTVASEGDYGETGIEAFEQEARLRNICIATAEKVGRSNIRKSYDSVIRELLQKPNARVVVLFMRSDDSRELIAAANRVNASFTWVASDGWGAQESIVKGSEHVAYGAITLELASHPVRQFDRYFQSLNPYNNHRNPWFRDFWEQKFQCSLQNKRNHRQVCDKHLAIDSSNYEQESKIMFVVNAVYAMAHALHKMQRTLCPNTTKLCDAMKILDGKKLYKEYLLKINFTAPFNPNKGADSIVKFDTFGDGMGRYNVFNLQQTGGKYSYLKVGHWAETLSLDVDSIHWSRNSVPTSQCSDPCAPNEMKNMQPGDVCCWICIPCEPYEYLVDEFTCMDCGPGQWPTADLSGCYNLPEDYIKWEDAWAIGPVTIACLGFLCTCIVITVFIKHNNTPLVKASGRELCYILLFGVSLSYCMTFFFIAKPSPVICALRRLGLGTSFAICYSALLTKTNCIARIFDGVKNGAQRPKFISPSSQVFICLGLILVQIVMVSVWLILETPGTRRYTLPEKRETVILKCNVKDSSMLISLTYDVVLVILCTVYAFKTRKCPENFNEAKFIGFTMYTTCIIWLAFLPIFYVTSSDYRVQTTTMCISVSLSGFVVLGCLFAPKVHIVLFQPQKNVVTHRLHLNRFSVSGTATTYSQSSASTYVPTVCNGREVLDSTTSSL

SMILES	EC50 (Human mGlu3) [nM]	EC50 (Rat mGlu2) [nM]	EC50 (Human mGlu2) [nM]	EC50 (Rat mGlu3) [nM]
[2H]C([2H])(CCCC([2H])([2H])Oc1ccc(C(=O)CCC)c(O)c1C)Oc1cccc(C(=O)O)c1C [Example 35]	> 10000	174	66	> 10000
COc1ccc(C(=O)O)cc1OCCCCSc1ccc(C(=O)CC(C)(C)C)c(O)c1C [compound 84, 3-{4-[4-(3,3-Dimethylbutanoyl)-3-hydroxy-2-methylphenylthio]butoxy}-4-methoxybenzoic acid]	340	382	126	953
CCCC(=O)c1ccc(OCCSCCOc2ccc(C(=O)O)c(Cl)c2)c(C)c1O [Example 42]	371	27	28	552
Cc1c(OCCSCCOc2ccc(C(=O)CC(C)(C)C)c(O)c2C)cccc1C(=O)O [Example 25]	311	137	60	578
Cc1c(OCC#CCOc2ccc(C(=O)CC(C)(C)C)c(O)c2C)cccc1C(=O)O [Example 22, 3-{4-[4-(3,3-Dimethylbutanoyl)-3-hydroxy-2-methylphenoxy]but-2-ynyloxy}-2-methylbenzoic acid]	39	16	4	20
CCCC(=O)c1ccc(OC/C=C/COc2ccc(C(=O)O)c(Cl)c2)c(C)c1O [Example 44, 4-[(2E)-4-(4-Butanoyl-3-hydroxy-2-methylphenoxy)but-2-enyloxy]-2-chlorobenzoic acid]	1130	44	20	1030
COC(=O)N(CCOc1cc(C(=O)O)ccc1OC)CCOc1ccc(C(=O)CC(C)(C)C)c(O)c1C [Example 24, 3-[2-(N-{2-[4-(3,3-Dimethylbutanoyl)-3-hydroxy-2-methylphenoxy]ethyl}methoxycarbonylamino)ethoxy]-4-methoxybenzoic acid]	462	176	82	649
CCCC(=O)c1ccc(OCCOCCNc2cccc(C(=O)O)c2)c(C)c1O [Example 9, 3-({2-[2-(4-Butanoyl-3-hydroxy-2-methylphenoxy)ethoxy]ethyl}amino)benzoic acid]	> 10000	73	50	> 10000
COc1ccc(C(=O)O)cc1OC/C=C/COc1ccc(C(=O)CC(C)(C)C)c(O)c1C [Example 4, (E)-3-((4-(4-(3,3-Dimethylbutanoyl)-3-hydroxy-2-methylphenoxy)but-2-en-1-yl)oxy)-4-methoxybenzoic acid]	61	67	56	47
COc1ccc(C(=O)O)cc1OCCCCCOc1ccc(C(=O)CC(C)(C)C)c(O)c1C [Example 11, 3-{5-[4-(3,3-Dimethylbutanoyl)-3-hydroxy-2-methylphenoxy]pentyloxy}-4-methoxybenzoic acid]	126	35	7	315
COc1ccc(C(=O)O)cc1C#CCCCOc1ccc(C(=O)CC(C)(C)C)c(O)c1C [Example 2, 3-(5-(4-(3,3-Dimethylbutanoyl)-3-hydroxy-2-methylphenoxy)pent-1-yn-1-yl)-4-methoxybenzoic acid]	79	456	144	91
CCCC(=O)c1ccc(OCCOCCOc2cccc(C(=O)O)c2C)c(C)c1O [Example 7, 3-(2-(2-(4-Butyryl-3-hydroxy-2-methylphenoxy)ethoxy)ethoxy)-2-methylbenzoic acid]	> 10000	158	116	> 30000
COc1ccc(C(=O)O)cc1OCCCCOc1ccc(C(=O)CC(C)(C)C)c(O)c1 [compound 132, 3-(4-(4-(3,3-Dimethylbutanoyl)-3-hydroxyphenoxy)butoxy)-4-methoxybenzoic acid]	114	403	129	309
CCCC(=O)c1ccc(OCCCCCOc2cccc(C(=O)O)c2C)c(C)c1O [Example 13]	> 10000	114	52	> 10000

Results, then the compound that gave them:

EC50 (Human mGlu3) [nM]	EC50 (Rat mGlu2) [nM]	EC50 (Human mGlu2) [nM]	EC50 (Rat mGlu3) [nM]	SMILES
159	93	54	493	COc1c(C(=O)O)cccc1-c1cccc(COc2ccc(C(=O)CC(C)(C)C)c(O)c2C)c1 [compound 102, 3-(3-{[4-(3,3-Dimethylbutanoyl)-3-hydroxy-2-methylphenoxy]methyl}phenyl)-2-methoxybenzoic acid]
222	303	190	69	COc1c(C(=O)O)cccc1-c1ccc(COc2ccc(C(=O)CC(C)(C)C)c(O)c2C)cc1 [compound 104, 3-(4-{[4-(3,3-Dimethylbutanoyl)-3-hydroxy-2-methylphenoxy]methyl}phenyl)-2-methoxybenzoic acid]
300	8	6	577	CCCC(=O)c1ccc(OCCCCCOc2ccc(C(=O)O)c(Cl)c2)c(C)c1O [Example 54, 4-[5-(4-Butanoyl-3-hydroxy-2-methylphenoxy)pentyloxy]-2-chlorobenzoic acid]
593	166	234	145	Cc1c(OCc2cccc(-c3cccc(C(=O)NC#N)c3)c2)ccc(C(=O)CC(C)(C)C)c1O [compound 162, N-Cyano-3′-((4-(3,3-dimethylbutanoyl)-3-hydroxy-2-methylphenoxy)methyl)-[1,1′-biphenyl]-3-carboxamide]
156	356	355	43	Cc1c(OCc2cnc(-c3ccc(F)c(C(=O)O)c3)cn2)ccc(C(=O)CC(C)(C)C)c1O [compound 115, 5-(5-((4-(3,3-Dimethylbutanoyl)-3-hydroxy-2-methylphenoxy)methyl)pyrazin-2-yl)-2-fluorobenzoic acid]
> 30000	36	25	> 30000	CCCC(=O)c1ccc(OCCCCCOc2ccc(Cl)c(C(=O)O)c2)c(C)c1O [Example 52, 5-[5-(4-Butanoyl-3-hydroxy-2-methylphenoxy)pentyloxy]-2-chlorobenzoic acid]
79	268	74	247	Cc1c(OCc2nc(-c3cccc(C(=O)O)c3)no2)ccc(C(=O)CC(C)(C)C)c1O [compound 133, 3-(5-((4-(3,3-Dimethylbutanoyl)-3-hydroxy-2-methylphenoxy)methyl)-1,2,4-oxadiazol-3-yl)benzoic acid]
414	39	12	427	Cc1c(OCCCCCOc2ccc(C(=O)O)c(Cl)c2)ccc(C(=O)CC(C)C)c1O [Example 46, 2-Chloro-4-{5-[3-hydroxy-2-methyl-4-(3-methylbutanoyl)phenoxy]pentyloxy}benzoic acid]
31	254	76	53	COc1cc(F)c(C(=O)O)cc1-c1cnc(COc2ccc(C(=O)CC(C)(C)C)c(O)c2C)cn1 [compound 130, 5-(5-((4-(3,3-Dimethylbutanoyl)-3-hydroxy-2-methylphenoxy)methyl)pyrazin-2-yl)-2-fluoro-4-methoxybenzoic acid]
213	117	234	28	COc1ccc(C(=O)O)cc1-c1cnc(COc2ccc(C(=O)CC(C)(C)C)c(O)c2C)cn1 [compound 116, 3-(5-((4-(3,3-Dimethylbutanoyl)-3-hydroxy-2-methylphenoxy)methyl)pyrazin-2-yl)-4-methoxybenzoic acid]
1480	92	203	855	Cc1c(C(=O)O)cccc1-c1cccc(COc2ccc(C(=O)CC(C)(C)C)c(O)c2C)c1 [compound 160, 3′-((4-(3,3-Dimethylbutanoyl)-3-hydroxy-2-methylphenoxy)methyl)-2-methyl-[1,1′-biphenyl]-3-carboxylic acid]
748	106	133	660	CCCC(=O)c1ccc(OCc2nc(-c3cccc(C(=O)O)c3)no2)c(C)c1O [compound 135, 3-(5-((4-Butyryl-3-hydroxy-2-methylphenoxy)methyl)-1,2,4-oxadiazol-3-yl)benzoic acid]
140	373	189	134	COc1ccc(C(=O)NC2CC2)cc1-c1cnc(COc2ccc(C(=O)CC(C)(C)C)c(O)c2C)cn1 [compound 127, N-Cyclopropyl-3-(5-((4-(3,3-dimethylbutanoyl)-3-hydroxy-2-methylphenoxy)methyl)pyrazin-2-yl)-4-methoxybenzamide]
23	49	33	28	COc1ccc(C(=O)O)cc1-c1cncc(COc2ccc(C(=O)C3CC3)c(O)c2C)n1 [compound 69, 3-(6-((4-(Cyclopropanecarbonyl)-3-hydroxy-2-methylphenoxy)methyl)pyrazin-2-yl)-4-methoxybenzoic acid]
242	110	39	559	COc1cc(F)c(C(=O)O)cc1-c1cccc(COc2ccc(C(=O)CC(C)(C)C)c(O)c2C)c1 [Example 164, 3′-((4-(3,3-dimethylbutanoyl)-3-hydroxy-2-methylphenoxy)methyl)-4-fluoro-6-methoxy-[1,1′-biphenyl]-3-carboxylic acid]
